The nature of this data set: solvent given as SMILES.

As to `COc1c(/C=N/Nc2ccc(C#N)cc2)ccc2ccccc12`, the absorption maximum by setting is: (in CC#N) 380 nm; (in CCCCCC) 387 nm; (in CO) 382 nm; (in CS(C)=O) 392 nm; (in ClC(Cl)Cl) 385 nm.
On to `CC[n+]1c(-c2ccccc2)c2cc(NC(N)=O)ccc2c2ccc(NC(N)=O)cc21`, for which the absorption maximum (in O) stood at 434 nm.
For `C(=C\c1nc2ccccc2[nH]1)/c1ccc(/C=C/c2nc3ccccc3[nH]2)cc1`, the absorption maximum reads like this: (in C1CCOC1) 389 nm; (in CC#N) 382 nm; (in CC(C)=O) 395 nm; (in CN(C)C=O) 390 nm; (in CO) 384 nm; (in CS(C)=O) 392 nm.
Consider `COC(=O)C1=C(C(=O)OC)C2(c3cc(Cl)ccc3-c3c(Cl)cc(Cl)cc32)C2(/C=C/c3ccccc3)c3cc(OC)c(OC)cc3CCN12` (configuration not stated), for which the absorption maximum (in ClCCl) is given as 327 nm.
Take `O=C1C=C(Nc2ccccc2F)C(=O)c2ccccc21`: the absorption maximum runs as follows: (in CCCCCC) 442 nm; (in CO) 448 nm.
In the case of `CN1c2ccccc2CCc2ccccc21`, the absorption maximum is, setting by setting: (in CC#N) 279 nm; (in CO) 278 nm.
Regarding `CC(C)(C)c1ccc2oc3nc4oc5ccc(N6c7ccccc7Oc7ccccc76)cc5c4cc3c2c1`, the absorption maximum (in ClC(Cl)Cl) was 347 nm.
As for `CCCCCCN1C(=O)c2cccc3cc(/N=C\c4ccc(N(c5ccccc5)c5ccccc5)cc4)cc(c23)C1=O`, under “in ClC(Cl)Cl”, the absorption maximum is 380 nm.
Regarding `CCCCCCCCC1(CCCCCCCC)c2ccccc2-c2ccc(N(c3ccc(-n4c5ccccc5c5ccccc54)cc3)c3ccc4c(c3)C(CCCCCCCC)(CCCCCCCC)c3ccccc3-4)cc21`, the absorption maximum came to 347 nm (in C1CCOC1); 345 nm (in CC#N); 345 nm (in CC(C)=O); 347 nm (in CCCCCC); 347 nm (in CCCCOCCCC); 347 nm (in CCN(CC)CC). Further, the absorption maximum (in CCOC(C)=O) was found to be 345 nm; the absorption maximum (in CCOCC) is given as 345 nm; the absorption maximum (in CN(C)C=O) came out at 345 nm; the absorption maximum (in Cc1ccccc1) is listed as 348 nm; the absorption maximum (in ClCCl) came out at 348 nm.
For the molecule `CC(C)(C)c1ccc2ccc3cc(-c4ccc5c(-c6ccc7c(ccc8ccc(C(C)(C)C)cc87)c6)cc6c7cc(-c8ccc9c(ccc%10ccc(C(C)(C)C)cc%109)c8)ccc7c(-c7ccc8c(ccc9ccc(C(C)(C)C)cc98)c7)cc6c5c4)ccc3c2c1`, the absorption maximum (in ClCCl) was found to be 303 nm.
Still for that read-out and setting: as for `C[Si]1(C)O[Si](C)(C)c2cc3c(-c4ccccc4F)c4cc(Cl)ccc4nc3cc21`, the figure is 380 nm.
With `CN(C)c1ccc(C#Cc2ccc(C=O)cc2)cc1`, the absorption maximum (in C1CCCCC1) came to 381.5 nm; the absorption maximum (in C1CCOC1) was 379.51 nm; the absorption maximum (in C1COCCO1) is recorded as 375.01 nm; the absorption maximum (in CC1CCCO1) is 382 nm; the absorption maximum (in CC#N) was 375.01 nm; the absorption maximum (in CC(C)=O) is listed as 388 nm. Further, the absorption maximum is 383.49 nm (in CC(C)CC(C)(C)C); 380.5 nm (in CC(C)O); 383 nm (in CCCCCCCCCCCCCCCC); 390 nm (in CCCCCCCCCCCCCCCCCl); 375.01 nm (in CCOC(C)=O); 372.49 nm (in CCOCC). The absorption maximum runs as follows: (in CN(C)C=O) 379.51 nm; (in CO) 380.5 nm; (in CS(C)=O) 387 nm; (in Cc1ccccc1) 381.5 nm.
As for `CCOC(=O)COc1ccc(/C=C/c2cc(C)c3n2[B-](F)(F)[N+]2=C(c4[nH]c(C)cc4C)c4ccccc4C2=C3)cc1`, the absorption maximum runs as follows: (in C1CCOC1) 679 nm; (in CC#N) 670 nm; (in CCCCCC) 679 nm; (in CO) 671 nm; (in Cc1ccccc1) 678 nm; (in ClCCl) 680 nm.
For `c1ccc(C2(c3ccccc3)c3ccc4ccc5ccccc5c4c3-c3c2ccc2ccc4ccccc4c32)cc1`, where the note is “in ClCCl”, the absorption maximum was found to be 408 nm.
Regarding `CC(C)(C)c1ccc2c(c1)c1cc(C(C)(C)C)ccc1n2-c1ccc(N(c2ccc(-c3ccc(-c4ccc(-c5ccc(-c6ccc(N(c7ccc(-n8c9ccc(C(C)(C)C)cc9c9cc(C(C)(C)C)ccc98)cc7)c7ccc(-n8c9ccc(C(C)(C)C)cc9c9cc(C(C)(C)C)ccc98)cc7)cc6)s5)c5nsnc45)s3)cc2)c2ccc(-n3c4ccc(C(C)(C)C)cc4c4cc(C(C)(C)C)ccc43)cc2)cc1`, under “in ClCCl”, the absorption maximum is recorded as 528 nm.
Turning to `Cc1ccccc1-c1c2ccc(=[N+]3CCOCC3)cc-2oc2cc(N3CCOCC3)ccc12`, the absorption maximum is, setting by setting: (in CCO) 556 nm; (in ClCCl) 554 nm.
For the molecule `C(=C\c1ncnc2ccccc12)/c1ccc(-c2ccc(N(c3ccccc3)c3ccccc3)cc2)cc1`, the absorption maximum (in ClCCl) amounted to 402 nm.
`COC(=O)c1noc(-c2ccccc2)c1Br`: the absorption maximum (in C1CCCCC1) is 307 nm.
`CCCCCCCCOc1cc(/C=C/c2cc[n+](Cc3ccc(C)cc3)cc2)c(OCCCCCCCC)cc1/C=C/c1cc[n+](Cc2ccc(C)cc2)cc1` had an absorption maximum (in ClCCl) of 490 nm.
Take `CCN(CC)c1ccc(-c2ccc(-c3nc(N4CCOCC4)c4ccccc4n3)s2)cc1`: the absorption maximum turned out to be 401 nm (in CC#N) and 405 nm (in Cc1ccccc1).
In turn, `CCCCCCN1C(=O)c2cccc3c(-c4ccc(-c5ccc6c7c(cccc57)C(=O)N(CCCCCC)C6=O)s4)ccc(c23)C1=O` gave an absorption maximum (in ClC(Cl)Cl) of 395 nm.
`CON(OC)c1cc2c3cc(-c4c(C)cc(C)cc4C)cc4c5cc(-c6c(C)cc(C)cc6C)cc6c7cc(B(c8c(C)cc(C)cc8C)c8c(C)cc(C)cc8C)cc8c9cc(-c%10c(C)cc(C)cc%10C)cc%10c%11cc(-c%12c(C)cc(C)cc%12C)cc%12c(c1)c2c1c(c43)c(c65)c(c78)c(c9%10)c1c%11%12` showed an absorption maximum (in C1CCOC1) of 452 nm; an absorption maximum (in CC(C)=O) of 445 nm; an absorption maximum (in CCCCCC) of 453 nm; an absorption maximum (in Cc1ccccc1) of 461 nm; an absorption maximum (in ClC(Cl)Cl) of 449 nm; an absorption maximum (in ClCCl) of 450 nm.
In the case of `C(/C=C/c1ccc(N(c2ccccc2)c2ccccc2)cc1)=C\c1ccncc1`, the absorption maximum runs as follows: (in C1COCCO1) 395 nm; (in CC#N) 396 nm; (in CCCCCCC) 393 nm; (in CO) 399 nm.
Where the note is “in CC#N”, `F[B-]1(F)n2c(c(Sc3ccccc3)c3c2-c2ccccc2CC3)C=C2C(Sc3ccccc3)=C3CCc4ccccc4C3=[N+]21` returned an absorption maximum of 640 nm.
`CCCCCCCCCCOC(=O)c1ccc2c3ccc(C(=O)OCCCCCCCCCC)c4c(C(=O)OCCCCCCCCCC)cc5[nH]c6cc(C(=O)OCCCCCCCCCC)c1c2c6c5c43` displayed an absorption maximum (in C1CCOC1) of 410 nm.
`N#Cc1ccc(-n2c3ccccc3c3c2c2ccccc2n3-c2ccccc2)cc1` yielded an absorption maximum (in Cc1ccccc1) of 359 nm.
`CCCCCC(=O)Oc1cc2[nH]c(cc2CCOC)c2nc(ccc3[nH]c(cc3CCOC)c3nc1C(CCOC)=C3)C(CCOC)=C2` yielded an absorption maximum (in Cc1ccccc1) of 646 nm.
`Brc1ccc(N(c2ccc(/C=C/c3ccncn3)cc2)c2ccc(/C=C/c3ccncn3)cc2)cc1` showed an absorption maximum (in ClCCl) of 417 nm.
`Cc1cc(-c2nc(-c3ccccc3)nc(-c3ccccc3)n2)ccc1N1c2ccccc2C2(c3ccccc3-c3ccccc32)c2ccccc21` had an absorption maximum (in Cc1ccccc1) of 394.19 nm.
As to `CCOC(=O)c1cc(C(=O)OCC)c2cccc(O)c2n1`, under “in CCO”, the absorption maximum is reported as 369 nm.
Turning to `c1ccc(-c2nc(-c3ccccc3)c(N(c3ccccc3)c3ccccc3)[se]2)cc1`, for the setting “in ClC(Cl)Cl”, the absorption maximum is reported as 384 nm.
In the case of `CCN(CC)c1ccc(-c2ccc(-c3nc(C#N)c4ccccc4n3)s2)cc1`, the absorption maximum is 397 nm (in CC#N) and 402 nm (in Cc1ccccc1).
Turning to `Cc1ccc(-c2ccc(-c3ccc(-c4ccc(-c5ccc(C)cc5)cc4)c(/C(=C(/c4ccccc4)c4cc(-c5ccc(-c6ccc(C)cc6)cc5)ccc4-c4ccc(-c5ccc(C)cc5)cc4)c4ccccc4)c3)cc2)cc1`, the absorption maximum (in C1CCOC1) worked out at 308 nm.
As for `COc1cc(OC)c2c(c1)C(=O)c1cc(OC)cc(OC)c1-2`, the absorption maximum (in C1CCCCC1) is on record as 489 nm, the absorption maximum (in CC#N) is recorded as 504 nm and the absorption maximum (in CCO) is 506 nm.
For `COc1ccc(-c2ccc(-c3c4c(nc5ccccc35)-c3cc5c(cc3CC4)-c3nc4ccccc4c(-c4ccc(-c6ccc(OC)cc6)cc4)c3CC5)cc2)cc1`, the absorption maximum (in ClC(Cl)Cl) was determined as 376 nm.
Consider `CCC1=C(C)C2=Cc3cc(I)cn3[B-](F)(F)[N+]2=C1C`, for which the absorption maximum was determined as 528 nm (in C1CCCCC1); 509.5 nm (in CC(C)=O); 514 nm (in CCO); 513 nm (in CCOC(C)=O); 511.5 nm (in CO); 504 nm (in OCC(F)(F)F).
Turning to `F[B-]1(F)n2c(ccc2-c2ccccc2)C(C(F)(F)F)=C2C=CC(c3ccccc3)=[N+]21`, under “in CCCCCC”, the absorption maximum is 592 nm.
Regarding `CN(C)c1ccc(-c2nc3nccnc3n2-c2ccccc2)cc1`, the absorption maximum (in CC#N) turned out to be 371 nm.
Take `CSc1sc(C(N)=O)c2nnn(C)c(=O)c12`: the absorption maximum is, setting by setting: (in C1CCOC1) 393 nm; (in CC#N) 394.5 nm; (in CCO) 397 nm; (in CN(C)C=O) 396.5 nm; (in CO) 397 nm; (in CS(C)=O) 398.5 nm.
`O=C1CC(c2ccccc2)c2c(c3ccccc3c3nc4ccccc4nc23)O1` (configuration not stated): the absorption maximum (in ClC(Cl)Cl) worked out at 410 nm.
Regarding `CC1=CC(C)=[N+]2C1=C(c1ccc(N(C)C)cc1)c1c(C)cc(/C=C/c3ccc(N(C)C)cc3)n1[B-]2(F)F`, the absorption maximum (in CCOCC) turned out to be 591 nm.
Turning to `C[Si](C)(C)c1ccc(-c2ccc(-c3ccc(-c4ccc(-c5ccc([Si](C)(C)C)cc5)cc4)c4nsnc34)cc2)cc1`, under “in C1CCOC1”, the absorption maximum is given as 401 nm.
With `CN(C)c1ccc(-c2nc3nc4ccccc4nc3n2-c2ccc(C(C)(C)C)cc2)cc1`, the absorption maximum (in CC#N) stood at 411 nm.

Values taken from the Deep4Chem optical property database.
